Experimental data taken from patent publication US4232160A, “Isoquinoline propionamides exhibiting analgesic properties” (Miles Laboratories, Inc., priority 1978, dated 1980).
Where a name gives a salt, the structure may show the parent alone.

The compounds below were run on male CD-1 mice (assay: acetic acid induced writhing test (analgesic activity, subcutaneous)). Settings: Mus musculus, sc, 0.5% acetic acid i.p. 15 min post drug, writhes counted in 20 min interval beginning 5 min after acetic acid, read-out: ED50 (dose required to reduce the number of writhes by 50%).
Format: in vivo
Method: The analgesic activity of the isoquinoline propionanilides prepared as described in Examples I-XIII was determined by the acetic acid induced writhing test described by Whittle et al., Brit. J. Pharmacol, 22 296 (1964). In this test at least three groups of five male CD-1 mice each were given subcutaneous doses of the test drug dissolved in either distilled water or distilled water acidified with HCl depending on solubility of the compound. In all cases 0.4 ml. of 0.5% v/v acetic acid in distilled water was administered intraperitoneal 15 minutes post drug. The number of writhes in a 20 minute interval beginning 5 minutes after the acetic acid injection were determined and compared with the number of writhes in control groups which had received only acetic acid. In two cases the ITME writhing test protocol was used which is the same as that outlined above except that the number of writhes are determined for 10 minutes after the administration of acetic acid.
Percent inhibition of writhing was calculated as: [formula]
The ED50 does, ie. the dose required to reduce the number of writhes by 50%, was determined graphically from a plot of % inhibition as a probit versus log dose. Confidence limits of 95% were calculated on the basis of those results falling in the range 16-84% inhibition. See Litchfield, J. T. and Wilcoxon, F., J Pharmacol. Exp. Ther., 96 99-113, (1949).

SMILES | ED50
CCC(=O)N(CC1c2ccccc2CCN1CC1CC1)c1ccccc1.Cl (stereo not shown) [TR-3207, N-[(1,2,3,4-Tetrahydro-2-cyclopropylmethyl-1-isoquinolyl)methyl]propionanilide hydrochloride] | 7.45 mg/kg
CCC(=O)N(CC1c2ccccc2CCN1C)c1ccccc1.Cl (stereo not shown) [TR-3284, N-[(1,2,3,4-Tetrahydro-2-methyl-1-isoquinolyl)methyl]propionanilide hydrochloride] | 7.1 mg/kg
CCCCCCN1CCc2ccccc2C1CN(C(=O)CC)c1ccccc1.O.O=C(O)C(=O)O (stereo not shown) [TR-3309, N-[(1,2,3,4-Tetrahydro-2-n-hexyl-1-isoquinolyl)methyl]propionanilide oxalate hydrate] | 2.08 mg/kg
CCCCCN1CCc2ccccc2C1CN(C(=O)CC)c1ccccc1.Cl (stereo not shown) [TR-3316, N-[(1,2,3,4-Tetrahydro-2-n-pentyl-1-isoquinolyl)methyl]propionanilide hydrochloride] | 1.76 mg/kg
CCC(=O)N(CC1c2ccccc2CCN1C)c1ccc(Cl)cc1.Cl (stereo not shown) [TR-3354, N-[(1,2,3,4-Tetrahydro-2-methyl-1-isoquinolyl)methyl]N-(4-chlorophenyl)propionamide hydrochloride] | 0.5 mg/kg
CCC(=O)N(CC1c2ccccc2CCN1C)c1ccc(C)cc1.Cl (stereo not shown) [TR-3355, N-[(1,2,3,4-Tetrahydro-2-methyl-1-isoquinolyl)methyl]-N-(4-methylphenyl)propionamide hydrochloride] | 0.53 mg/kg
CCC(=O)N(CC1c2ccccc2CCN1Cc1ccccc1)c1ccccc1.Cl (stereo not shown) [TR-3359, N-[(1,2,3,4-Tetrahydro-2-benzyl-1-isoquinolyl)methyl]propionanilide hydrochloride] | 15 mg/kg
CCC(=O)N(Cc1ccccc1)CC1c2ccccc2CCN1Cc1ccccc1 (stereo not shown) [TR-3388, N-[(1,2,3,4-Tetrahydro-2-benzyl-1-isoquinolyl)methyl]-N-benzylpropionamideoxalate] | 33 mg/kg
CCC(=O)N(Cc1ccccc1)CC1c2ccccc2CCN1C (stereo not shown) [TR-3389, N-[(1,2,3,4-Tetrahydro-2-methyl-1-isoquinolyl)methyl]-N-benzylpropionamideoxalate] | 23 mg/kg
CCC(=O)N(CC1c2cc(OC)c(OC)cc2CCN1C)c1ccccc1 (stereo not shown) [TR-3426, N-[(6,7-Dimethoxy-2-methyl-1,2,3,4-tetrahydro-1-isoquinolyl)methyl]propionanilide] | 4.55 mg/kg
CCC(=O)N(CC1c2ccccc2CCN1C)c1ccccn1 (stereo not shown) [TR-3461, N-[(2-Methyl-1,2,3,4-tetrahydro-1-isoquinolyl)methyl]-N-(2-pyridyl)priopionamide hydrochloride] | 10.7 mg/kg

Same assay, conditions: Mus musculus, sc, 10 min, *According to IMTE writhing test protocol: writhes determined for 10 minutes after acetic acid, read-out: ED50 (dose required to reduce the number of writhes by 50%)

SMILES | ED50
CCC(=O)N(CC1c2ccccc2CCN1CCc1ccccc1)c1ccccc1.Cl (stereo not shown) [TR-3280, N-[(1,2,3,4-Tetrahydro-2-phenethyl-1-isoquinolyl)methyl]propionanilide hydrochloride] | 10 mg/kg
CCC(=O)N(CC1c2ccccc2CCN1CCC(C)C)c1ccccc1.Cl (stereo not shown) [TR-3317, N-[(1,2,3,4-Tetrahydro-2-i-pentyl-1-isoquinolyl)methyl]propionanilide hydrochloride] | 16.5 mg/kg
